Values joined by “and” are separate entries in the source; they are usually repeats but may differ in a detail not shown here. Equal values may be shown once.
Experiments:
MCF7 xenograft [1] = test: Tumor growth inhibition in orthotopic MCF7/estradiol xenograft model, single agent; format: in vivo, NOD/SCID mice; conditions: for tumor growth inhibition (TGI): 28 days, vs vehicle
Method: Species: NOD/SCID female mice (Charles River, 6-7 weeks old upon arrival).
Animal handling: Axial mammary fat pad implantation of 5×10^6 MCF7 cells/200 per mouse (17β-estradiol 0.36 mg 90-day pellet implanted day before).
Tumor volumes were evaluated twice per week for twenty-eight days.
Sampling: Tumors were measured twice weekly. Terminal sacrifice was ˜18 hr after last dose; tumors were harvested, divided, and flash frozen. ERα levels were determined by immunoblotting.
Tumor volume calculation: Tumor Volume=(width×width×length)/2, where all measurements are in mm and the tumor volume is in mm^3.
Tumor Growth Inhibition (TGI) calculation: TGI (%)

MCF7 xenograft [2] = test: MCF7 orthotopic xenograft, combination with mTOR inhibitor everolimus; format: in vivo, NOD/SCID mice
Method: NOD/SCID female mice (Charles River, 6-7 weeks old upon arrival) were implanted with 17b-estradiol 0.72 mg 90-day pellets. The next day, each mouse was implanted with 5×10^6 MCF7 cells/[…] per in the axial mammary fat pad. Compound administration was initiated once the tumors reached 175-200 mm^3. Diet was supplemented with peanut butter to help maintain body weights. […] (FIG. 28 and Table 13).
Error bars represent standard deviation.
The ratio of Tween 80 to PEG-400 is 0.02 g Tween 80 to 1 ml PEG-400. PEG-400 is added to a pre-aliquoted volume of Tween 80. • For everolimus: 10% DMSO, 90% (2% Tween 80, PEG 400) (DMSO/PEG/Tween) Sampling: tumors were measured twice weekly. Terminal sacrifice was ˜18 hr after last dose. Tumor volume calculation: Tumor Volume=(width×width×length)/2, where all measurements are in mm and the tumor volume is in mm^3. Tumor Growth Inhibition (TGI) calculation: TGI (%)

[3] = 28-day oral toxicology study in rats; format: in vivo; conditions: oral once daily 28 days
ERα = target: T1, ERα (Homo sapiens, UniProt P03372); test: ERα levels in tamoxifen-resistant MCF7 xenografts (immunoblot); format: in vivo, Nu/Nu mice; conditions: tamoxifen-resistant MCF7, 30 mg/kg, study termination
T1 construct: robustly degrades ER in ER-positive breast cancer cell lines; endogenous in cells; host or cells: MCF7, T47D (cell culture); MCF7 and tamoxifen-resistant MCF7 xenograft tumours in mice
T1 sequence (P03372 1-595): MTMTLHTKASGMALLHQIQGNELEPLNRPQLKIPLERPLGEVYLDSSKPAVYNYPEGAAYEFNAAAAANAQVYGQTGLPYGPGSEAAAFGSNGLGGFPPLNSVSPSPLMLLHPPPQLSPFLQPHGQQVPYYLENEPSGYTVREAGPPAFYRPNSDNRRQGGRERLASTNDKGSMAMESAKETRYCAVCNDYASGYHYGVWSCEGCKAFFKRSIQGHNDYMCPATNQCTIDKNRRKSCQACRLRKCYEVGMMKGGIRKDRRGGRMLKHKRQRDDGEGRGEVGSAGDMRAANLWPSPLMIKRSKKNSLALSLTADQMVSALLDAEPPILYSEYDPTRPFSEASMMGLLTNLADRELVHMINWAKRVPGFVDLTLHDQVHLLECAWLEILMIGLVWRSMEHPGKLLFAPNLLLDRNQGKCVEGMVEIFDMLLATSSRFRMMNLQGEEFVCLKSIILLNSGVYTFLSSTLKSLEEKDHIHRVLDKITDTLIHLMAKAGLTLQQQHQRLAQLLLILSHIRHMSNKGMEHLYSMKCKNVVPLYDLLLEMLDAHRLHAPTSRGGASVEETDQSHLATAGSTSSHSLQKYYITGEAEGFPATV
Method: At study termination, the tumors were removed from the mice, and ERα levels were determined by immunoblotting the tumor homogenates. […] ERα levels from the various compound arms were compared to vehicle-treated animals by analyzing the tumor lysates on separate immunoblots (graphs in FIG. 10, FIG. 11, and FIG. 12 depict data from individual immunoblots) and the average ERα levels with standard deviation is shown.
Sampling: Tumors were measured twice weekly. Terminal sacrifice was ˜18 hr after last dose; tumors were harvested, divided, and flash frozen. ERα levels were determined by immunoblotting (see Appendix 1 for details).
Flash frozen tumors were removed from −80° C. storage and placed on dry ice. RIPA lysis buffer and Halt protease inhibitors were used at 400 μl per tumor sample. A steel ball (5 mm) was placed in each sample for tissue disruption. Samples were lysed with TissueLyzer at 24 Hz for 4 minutes. The homogenization was stopped half way through the process and the block flipped over for the duration of the process. […] Lysates were then measured for total protein concentration by BCA (per manufacturer's protocol). […]
Protein was transferred from gels to nitrocellulose with Bio-Rad Turbo on default setting. […] The blots were cut so that beta-actin and ERα can be detected from the same lane/sample. […]

[4] = Compound (I-c) 30 mg/kg oral QD x 26

## O=C1CC[C@H](N2Cc3cc(N4CCN(CC5CCN(c6ccc([C@@H]7c8ccc(O)cc8CC[C@@H]7c7ccccc7)cc6)CC5)CC4)ccc3C2=O)C(=O)N1 [Compound (I-c), (3S)-3-[5-[4-[[1-[4-[(1R,2S)-6-hydroxy-2-phenyl-tetralin-1-yl]phenyl]-4-piperidyl]methyl]piperazin-1-yl]-1-oxo-isoindolin-2-yl]piperidine-2,6-dione]
MCF7 xenograft [1]; 3 mg/kg oral QD x 28
  Day 28 Tumor volume (mean ± SD): 286 ± 206 mm^3
  TGI (% vehicle): 85 % vehicle
MCF7 xenograft [1]; 3 mg/kg oral once daily
  tumor growth inhibition (TGI): 85%
MCF7 xenograft [1]; 10 mg/kg oral QD x 28
  Day 28 Tumor volume (mean ± SD): 226 ± 118 mm^3
  TGI (% vehicle): 98 % vehicle
MCF7 xenograft [1]; 10 mg/kg oral once daily
  tumor growth inhibition (TGI): 98% and 94%
MCF7 xenograft [1]; 30 mg/kg oral QD x 28
  Day 28 Tumor volume (mean ± SD): 115 ± 79 mm^3
  TGI (% vehicle): 124 % vehicle
MCF7 xenograft [1]; 30 mg/kg oral once daily
  tumor growth inhibition (TGI): 124%
MCF7 xenograft [2]; [4]
  Day 26 Tumor Volume (mean ± SD): 169 ± 77 mm^3
  TGI (% vehicle): 102 % vehicle
MCF7 xenograft [2]; single agent 30 mg/kg oral once daily, 26 days
  tumor growth inhibition (TGI): 102%
[3]; doses up to 100 mg/kg/day
  clinical signs of toxicity: no clinical signs of toxicity
[3]; up to 100 mg/kg/day
  effects on overall animal health or well-being: no effects on the overall animal health or well-being
ERα
  reduction of tumor ERα levels vs vehicle: 73%
